ChEMBL document CHEMBL3616371, “Synthesis of BF₃ catalyzed Mannich derivatives with excellent ee from phenylpropanolamine, study of their antimicrobial activity and molecular docking” (2015)
In brackets after ≈: the same amount, converted by molar mass.

Tests used:
[1] = test system: Candida albicans; assay: Antifungal activity against Candida albicans assessed as growth inhibition at 1 mg/well after 48 hrs by Well method; type: functional
[2] = test system: Aspergillus flavus; assay: Antifungal activity against Aspergillus flavus after 48 to 72 hrs by two fold serial dilution method; type: functional
[3] = test system: Candida albicans; assay: Antifungal activity against Candida albicans after 48 to 72 hrs by two fold serial dilution method; type: functional
[4] = test system: Malassezia pachydermatis; assay: Antifungal activity against Malassezia pachydermatis after 48 to 72 hrs by two fold serial dilution method; type: functional
[5] = test system: Aspergillus flavus; assay: Antifungal activity against Aspergillus flavus assessed as growth inhibition at 1 mg/well after 48 hrs by Well method; type: functional
[6] = test system: Malassezia pachydermatis; assay: Antifungal activity against Malassezia pachydermatis assessed as growth inhibition at 1 mg/well after 48 hrs by Well method; type: functional
[7] = test system: Proteus vulgaris; assay: Antibacterial activity against Proteus vulgaris assessed as growth inhibition at 1 mg/well after 24 hrs by Well method; type: functional
[8] = test system: Staphylococcus epidermidis; assay: Antibacterial activity against Staphylococcus epidermidis assessed as growth inhibition at 1 mg/well after 24 hrs by Well method; type: functional
[9] = test system: Pseudomonas aeruginosa; assay: Antibacterial activity against Pseudomonas aeruginosa assessed as growth inhibition at 1 mg/well after 24 hrs by Well method; type: functional
[10] = test system: Proteus vulgaris; assay: Antibacterial activity against Proteus vulgaris after 24 hrs by two fold serial dilution method; type: functional
[11] = test system: Klebsiella aerogenes; assay: Antibacterial activity against Enterobacter aerogenes assessed as growth inhibition at 1 mg/well after 24 hrs by Well method; type: functional
[12] = test system: Micrococcus luteus; assay: Antibacterial activity against Micrococcus luteus assessed as growth inhibition at 1 mg/well after 24 hrs by Well method; type: functional
[13] = test system: Salmonella typhimurium; assay: Antibacterial activity against Salmonella typhimurium after 24 hrs by two fold serial dilution method; type: functional, Salmonella enterica subsp. enterica serovar Typhimurium; conditions: Salmonella enterica
[14] = test system: Shigella flexneri; assay: Antibacterial activity against Shigella flexneri assessed as growth inhibition at 1 mg/well after 24 hrs by Well method; type: functional
[15] = test system: Shigella flexneri; assay: Antibacterial activity against Shigella flexneri after 24 hrs by two fold serial dilution method; type: functional
[16] = test system: Bacillus subtilis; assay: Antibacterial activity against Bacillus subtilis after 24 hrs by two fold serial dilution method; type: functional
[17] = test system: Salmonella typhimurium; assay: Antibacterial activity against Salmonella typhimurium assessed as growth inhibition at 1 mg/well after 24 hrs by Well method; type: functional, Salmonella enterica subsp. enterica serovar Typhimurium
[18] = test system: Klebsiella pneumoniae; assay: Antibacterial activity against Klebsiella pneumoniae assessed as growth inhibition at 1 mg/well after 24 hrs by Well method; type: functional
[19] = test system: Staphylococcus aureus; assay: Antibacterial activity against methicillin-resistant Staphylococcus aureus after 24 hrs by two fold serial dilution method; type: functional
[20] = test system: Staphylococcus epidermidis; assay: Antibacterial activity against Staphylococcus epidermidis after 24 hrs by two fold serial dilution method; type: functional
[21] = test system: Pseudomonas aeruginosa; assay: Antibacterial activity against Pseudomonas aeruginosa after 24 hrs by two fold serial dilution method; type: functional
[22] = test system: Staphylococcus aureus; assay: Antibacterial activity against Staphylococcus aureus after 24 hrs by two fold serial dilution method; type: functional
[23] = test system: Staphylococcus aureus; assay: Antibacterial activity against Staphylococcus aureus assessed as growth inhibition at 1 mg/well after 24 hrs by Well method; type: functional
[24] = test system: Klebsiella pneumoniae; assay: Antibacterial activity against Klebsiella pneumoniae after 24 hrs by two fold serial dilution method; type: functional
[25] = test system: Micrococcus luteus; assay: Antibacterial activity against Micrococcus luteus after 24 hrs by two fold serial dilution method; type: functional
[26] = test system: Klebsiella aerogenes; assay: Antibacterial activity against Enterobacter aerogenes after 24 hrs by two fold serial dilution method; type: functional
[27] = test system: Staphylococcus aureus; assay: Antibacterial activity against methicillin-resistant Staphylococcus aureus assessed as growth inhibition at 1 mg/well after 24 hrs by Well method; type: functional
[28] = test system: Bacillus subtilis; assay: Antibacterial activity against Bacillus subtilis assessed as growth inhibition at 1 mg/well after 24 hrs by Well method; type: functional

SMILES: CC(=O)N1CCN(c2ccc(OCC3COC(Cn4ccnc4)(c4ccc(Cl)cc4Cl)O3)cc2)CC1 (centres undefined) [KETOCONAZOLE]
- inhibition zone (IZ) [1]: 28 mm
- MIC [2]: < 12.5 µg/mL
- MIC [3]: 25 µg/mL (≈ 47 µM)
- MIC [4]: 25 µg/mL (≈ 47 µM)
- inhibition zone (IZ) [5]: 24 mm
- inhibition zone (IZ) [6]: 26 mm

SMILES: C[C@@H](NCCC(=O)c1ccccc1)[C@@H](O)c1ccccc1.Cl
- inhibition zone (IZ) [7]: 24 mm
- inhibition zone (IZ) [8]: 26 mm
- inhibition zone (IZ) [1]: 15 mm
- inhibition zone (IZ) [9]: 22 mm
- MIC [10]: 25 µg/mL
- inhibition zone (IZ) [11]: 20 mm
- inhibition zone (IZ) [12]: 28 mm
- MIC [3]: 50 µg/mL
- MIC [4]: 50 µg/mL
- MIC [13]: 25 µg/mL
- inhibition zone (IZ) [14]: 22 mm
- MIC [15]: 25 µg/mL
- MIC [16]: 25 µg/mL
- inhibition zone (IZ) [17]: 22 mm
- inhibition zone (IZ) [18]: 19 mm
- MIC [19]: 6.25 µg/mL
- MIC [20]: 12.5 µg/mL
- MIC [21]: 12.5 µg/mL
- inhibition zone (IZ) [6]: 14 mm
- MIC [22]: 25 µg/mL
- inhibition zone (IZ) [23]: 22 mm
- MIC [24]: 50 µg/mL
- MIC [25]: 12.5 µg/mL
- MIC [26]: 50 µg/mL
- inhibition zone (IZ) [27]: 28 mm
- inhibition zone (IZ) [28]: 20 mm

SMILES: C[C@@H](NCCC(=O)c1ccc(Cl)cc1)[C@@H](O)c1ccccc1.Cl
- inhibition zone (IZ) [7]: 32 mm
- inhibition zone (IZ) [8]: 36 mm
- inhibition zone (IZ) [1]: 24 mm
- inhibition zone (IZ) [9]: 23 mm
- MIC [10]: 3.13 µg/mL
- inhibition zone (IZ) [11]: 34 mm
- inhibition zone (IZ) [12]: 29 mm
- MIC [3]: 12.5 µg/mL
- MIC [4]: 50 µg/mL
- MIC [13]: 6.25 µg/mL
- inhibition zone (IZ) [14]: 30 mm
- MIC [15]: 6.25 µg/mL
- MIC [16]: 12.5 µg/mL
- inhibition zone (IZ) [17]: 30 mm
- inhibition zone (IZ) [18]: 18 mm
- MIC [19]: 3.13 µg/mL
- MIC [20]: 3.13 µg/mL
- MIC [21]: 12.5 µg/mL
- inhibition zone (IZ) [6]: 15 mm
- MIC [22]: 3.13 µg/mL
- inhibition zone (IZ) [23]: 36 mm
- MIC [24]: 50 µg/mL
- MIC [25]: 6.25 µg/mL
- MIC [26]: 3.13 µg/mL
- inhibition zone (IZ) [27]: 33 mm
- inhibition zone (IZ) [28]: 24 mm

SMILES: C[C@H](NCCC(=O)c1ccc(Cl)cc1Cl)[C@H](O)c1ccccc1.Cl
- inhibition zone (IZ) [7]: 32 mm
- inhibition zone (IZ) [8]: 35 mm
- inhibition zone (IZ) [1]: 22 mm
- inhibition zone (IZ) [9]: 29 mm
- MIC [10]: 25 µg/mL
- MIC [2]: 25 µg/mL
- inhibition zone (IZ) [11]: 34 mm
- inhibition zone (IZ) [12]: 35 mm
- MIC [13]: 25 µg/mL
- inhibition zone (IZ) [14]: 31 mm
- MIC [15]: 25 µg/mL
- MIC [16]: 25 µg/mL
- inhibition zone (IZ) [17]: 30 mm
- MIC [19]: 25 µg/mL
- MIC [20]: 25 µg/mL
- MIC [21]: 25 µg/mL
- MIC [22]: 25 µg/mL
- inhibition zone (IZ) [23]: 36 mm
- MIC [24]: > 50 µg/mL
- MIC [25]: 25 µg/mL
- MIC [26]: 25 µg/mL
- inhibition zone (IZ) [27]: 31 mm
- inhibition zone (IZ) [28]: 30 mm

SMILES: C[C@@H](NCCC(=O)c1cccc(O)c1)[C@@H](O)c1ccccc1.Cl
- inhibition zone (IZ) [7]: 22 mm
- inhibition zone (IZ) [8]: 24 mm
- inhibition zone (IZ) [9]: 20 mm
- MIC [10]: 25 µg/mL
- inhibition zone (IZ) [11]: 21 mm
- inhibition zone (IZ) [12]: 34 mm
- MIC [4]: > 50 µg/mL
- MIC [13]: 50 µg/mL
- inhibition zone (IZ) [14]: 21 mm
- MIC [15]: 25 µg/mL
- MIC [16]: 25 µg/mL
- inhibition zone (IZ) [17]: 20 mm
- inhibition zone (IZ) [18]: 20 mm
- MIC [19]: 25 µg/mL
- MIC [20]: 25 µg/mL
- MIC [21]: 25 µg/mL
- inhibition zone (IZ) [6]: 14 mm
- MIC [22]: 50 µg/mL
- inhibition zone (IZ) [23]: 20 mm
- MIC [24]: 50 µg/mL
- MIC [25]: 3.13 µg/mL
- MIC [26]: 25 µg/mL
- inhibition zone (IZ) [27]: 22 mm
- inhibition zone (IZ) [28]: 20 mm

SMILES: C[C@@H](NCCC(=O)c1cccc([N+](=O)[O-])c1)[C@@H](O)c1ccccc1.Cl
- inhibition zone (IZ) [7]: 20 mm
- inhibition zone (IZ) [8]: 18 mm
- inhibition zone (IZ) [1]: 15 mm
- inhibition zone (IZ) [9]: 17 mm
- MIC [10]: 50 µg/mL
- inhibition zone (IZ) [11]: 17 mm
- inhibition zone (IZ) [12]: 18 mm
- MIC [3]: 50 µg/mL
- MIC [4]: 25 µg/mL
- MIC [13]: 50 µg/mL
- inhibition zone (IZ) [14]: 19 mm
- MIC [15]: 50 µg/mL
- MIC [16]: 25 µg/mL
- inhibition zone (IZ) [17]: 18 mm
- MIC [19]: 50 µg/mL
- MIC [20]: 50 µg/mL
- MIC [21]: 50 µg/mL
- inhibition zone (IZ) [6]: 21 mm
- MIC [22]: 50 µg/mL
- inhibition zone (IZ) [23]: 14 mm
- MIC [25]: 50 µg/mL
- MIC [26]: 50 µg/mL
- inhibition zone (IZ) [27]: 16 mm
- inhibition zone (IZ) [28]: 18 mm
